From ChEMBL document CHEMBL5380860, “Design, Synthesis, and Antitumor Activity of Potent and Selective EGFR L858R/T790M Inhibitors and Identification of a Combination Therapy to Overcome Acquired Resistance in Models of Non-small-cell Lung Cancer” (J Med Chem, 2023)

Experiments:
[1] = Cytotoxicity against human A-431 cells harboring wild type EGFR assessed as reduction in cell viability measured after 72 hrs by MTT assay; assay type: toxicity, cell-based
[2] = Cytotoxicity against human A549 cells harboring wild type EGFR assessed as reduction in cell viability measured after 72 hrs by MTT assay; assay type: toxicity, cell-based
[3] = system: HCC827; assay: Antiproliferative activity against human HCC827 cells harboring EGFR exon del 19 mutant assessed as reduction in cell viability measured after 72 hrs by MTT assay; assay type: functional, cell-based; details: HCC827, 72 h
[4] = system: NCI-H1975; assay: Antiproliferative activity against human NCI-H1975 cells harboring EGFR L858R/T790M mutant assessed as reduction in cell viability measured after 72 hrs by MTT assay; assay type: functional, cell-based; details: NCI-H1975, 72 h

| SMILES | IC50 at 72 h [1] | IC50 at 72 h [2] | IC50 [3] | IC50 [4] |
| --- | --- | --- | --- | --- |
| C=CC(=O)Nc1cccc(Nc2nc(Nc3ccc(N4CCC(N(C)C)CC4)cc3)nc3ccc(F)cc23)c1 | 1.84 µM | 1.26 µM | 0.056 µM | 0.165 µM |
| C=CC(=O)Nc1cccc(Nc2nc(Nc3ccc(N4CCC(N5CCN(C)CC5)CC4)cc3)nc3ccc(F)cc23)c1 | 1.69 µM | 1.52 µM | 0.018 µM | 0.024 µM |
| C=CC(=O)Nc1cccc(Nc2nc(Nc3ccc(N4CCN(C)CC4)cc3)nc3ccc([N+](=O)[O-])cc23)c1 | > 10 µM | > 10 µM | 3.7 µM | 6.36 µM |
| CC(C)=CC(=O)Nc1cccc(Nc2nc(Nc3ccc(N4CCN(C)CC4)cc3)nc3ccc(Cl)cc23)c1 | 3.29 µM | 5.33 µM | 0.884 µM | 0.874 µM |
| CN1CCN(c2ccc(Nc3nc(Nc4cccc(NC(=O)/C=C/c5ccccc5)c4)c4cc(Cl)ccc4n3)cc2)CC1 | 3.22 µM | > 10 µM | 1.01 µM | 2.31 µM |
| C=CC(=O)Nc1cccc(Nc2nc(Nc3ccc(N4CCN(C)CC4)c(F)c3)nc3ccc(Cl)cc23)c1 | 2.31 µM | 1.5 µM | 0.019 µM | 0.045 µM |
| C=CC(=O)Nc1cccc(Nc2nc(Nc3ccc(N4CCC(N(C)C)CC4)cc3OC)nc3ccc(Cl)cc23)c1 | 5.8 µM | 3.59 µM | 0.159 µM | 0.561 µM |
| C=CC(=O)Nc1cccc(Nc2nc(Nc3ccc(N4CCN(C)CC4)cc3OC)nc3ccc(F)cc23)c1 | 3.25 µM | 1.52 µM | 0.098 µM | 0.234 µM |
| C=CC(=O)Nc1cccc(Nc2nc(Nc3ccc(N4CCN(C)CC4)cc3)nc3c(Cl)cccc23)c1 | > 10 µM | > 10 µM | 4.64 µM | 5.63 µM |
| C=CC(=O)Nc1cccc(Nc2nc(Nc3ccc(N4CCC(N5CCOCC5)CC4)cc3OC)nc3ccc(Cl)cc23)c1 | > 10 µM | > 10 µM | 4.59 µM | 5.24 µM |
| C=CC(=O)Nc1cccc(Nc2nc(Nc3ccc(N4CCN(C)CC4)cc3)nc3ccc(C(F)(F)F)cc23)c1 | 7.64 µM | > 10 µM | 4.68 µM | 4.76 µM |
| C=CC(=O)Nc1cccc(Nc2nc(Nc3ccc(N4CCN(C)CC4)cc3)nc3ccc(Br)cc23)c1 | 5.42 µM | 8.71 µM | 1.9 µM | 2.63 µM |
| C=CC(=O)Nc1cccc(Nc2nc(Nc3ccc(N4CCC(N5CCN(C)CC5)CC4)cc3OC)nc3ccc(F)cc23)c1 | > 10 µM | 8.95 µM | 1.06 µM | 1.02 µM |
| C=CC(=O)Nc1cccc(Nc2nc(Nc3ccc(N4CCN(C)CC4)cc3)nc3ccc(OC)cc23)c1 | 4.82 µM | 3.99 µM | 1.76 µM | 2.98 µM |
| C=CC(=O)Nc1cccc(Nc2nc(Nc3ccc(N4CCN(C)CC4)cc3)nc3c(F)cccc23)c1 | > 10 µM | > 10 µM | 2.34 µM | 5.48 µM |
| CCC(=O)Nc1cccc(Nc2nc(Nc3ccc(N4CCN(C)CC4)cc3)nc3ccc(Cl)cc23)c1 | > 10 µM | > 10 µM | 6.48 µM | 7.33 µM |
| C=CC(=O)Nc1cccc(Nc2nc(Nc3ccc(N4CCC(N5CCOCC5)CC4)cc3OC)nc3ccc(F)cc23)c1 | > 10 µM | > 10 µM | 3.93 µM | 4.62 µM |
| C=CC(=O)Nc1cccc(Nc2nc(Nc3ccc(N(C)CCN(C)C)cc3OC)nc3ccc(Cl)cc23)c1 | > 10 µM | > 10 µM | 5.98 µM | 6.84 µM |

| SMILES | IC50 at 72 h [1] | IC50 at 72 h [2] | IC50 [3] | IC50 [4] |
| --- | --- | --- | --- | --- |
| C=CC(=O)Nc1cccc(Nc2nc(Nc3ccc(N4CCN(C)CC4)cc3)nc3cc(Cl)ccc23)c1 | 7.62 µM | 5.79 µM | 1.85 µM | 3.28 µM |
| C=CC(=O)Nc1cccc(Nc2nc(Nc3ccc(N4CCN(C)CC4)cc3)nc3cc(F)ccc23)c1 | 9.04 µM | 7.81 µM | 1.04 µM | 2.34 µM |
| C=CC(=O)Nc1cccc(Nc2nc(Nc3ccc(N4CCOCC4)cc3)nc3ccc(F)cc23)c1 | > 10 µM | 8.52 µM | 1.39 µM | 2.02 µM |
| C=CC(=O)Nc1cccc(Nc2nc(Nc3ccc(C4CCN(C)CC4)cc3)nc3ccc(Cl)cc23)c1 | > 10 µM | > 10 µM | 2.69 µM | 3.41 µM |
| C=CC(=O)Nc1ccccc1Nc1nc(Nc2ccc(N3CCN(C)CC3)cc2)nc2ccc(Cl)cc12 | > 10 µM | > 10 µM | 1.02 µM | 1.32 µM |
| C=CS(=O)(=O)Nc1cccc(Nc2nc(Nc3ccc(N4CCN(C)CC4)cc3)nc3ccc(Cl)cc23)c1 | 8.77 µM | > 10 µM | 1.49 µM | 1.03 µM |
| C=CC(=O)Nc1cccc(Nc2nc(Nc3ccc(N4CCN(C)CC4)cc3)nc3cccc(Cl)c23)c1 | 4.58 µM | 3.88 µM | 0.987 µM | 1.02 µM |
| C=CC(=O)Nc1cccc(Nc2nc(Nc3ccc(N(C)CCN(C)C)cc3)nc3ccc(F)cc23)c1 | 3.15 µM | 2.57 µM | 0.85 µM | 1.79 µM |
| C=CC(=O)Nc1cccc(Nc2nc(Nc3ccc(N4CCN(C)CC4)cc3)nc3cc(OC)ccc23)c1 | > 10 µM | > 10 µM | 4.31 µM | 7.84 µM |
| C=CC(=O)Nc1cccc(Nc2nc(Nc3ccc(N4CCN(C)CC4)cc3)nc3c2CCN(C(=O)OCc2ccccc2)C3)c1 | > 10 µM | > 10 µM | > 10 µM | > 10 µM |
| C=CC(=O)Nc1cccc(Nc2nc(Nc3ccc(N(C)CCN(C)C)cc3)nc3ccc(Cl)cc23)c1 | 2.89 µM | 2.3 µM | 0.95 µM | 1.24 µM |
| C=CC(=O)Nc1cccc(Nc2nc(Nc3ccc(N4CCN(C)CC4)cc3OC)nc3ccc(Cl)cc23)c1 | 2.42 µM | 3.52 µM | 0.12 µM | 0.321 µM |
| C=CC(=O)Nc1cccc(Nc2nc(Nc3ccc(N4CCN(C)CC4)cc3)nc3cccc(F)c23)c1 | 1.84 µM | 2.31 µM | 0.784 µM | 1 µM |
| C=CC(=O)Nc1cccc(Nc2nc(Nc3ccc(N4CCN(C)CC4)c(F)c3)nc3ccc(F)cc23)c1 | 1.28 µM | 2.47 µM | 0.02 µM | 0.035 µM |
| C=CC(=O)Nc1cccc(Nc2nc(Nc3ccc(N4CCN(C)CC4)cc3)nc3ccc(I)cc23)c1 | > 10 µM | > 10 µM | 4.59 µM | 5.76 µM |
| C=CC(=O)Nc1cccc(Nc2nc(Nc3ccc(N4CCN(C)CC4)cc3)nc3c2CCCC3)c1 | 4.56 µM | 5.64 µM | 2.31 µM | 3.43 µM |
| C=CC(=O)Nc1cccc(Nc2nc(Nc3ccc(N4CCC(N5CCN(C)CC5)CC4)cc3OC)nc3ccc(Cl)cc23)c1 | 6.6 µM | > 10 µM | 1.68 µM | 1.36 µM |
| C=CC(=O)Nc1ccc(Nc2nc(Nc3ccc(N4CCN(C)CC4)cc3)nc3ccc(Cl)cc23)cc1 | > 10 µM | > 10 µM | 1.28 µM | 2.32 µM |
